Laboratory results as given in patent publication US20230167068A1, “BENZOPYRAZOLE COMPOUND” (MEDSHINE DISCOVERY INC., priority 2019, published 2023).

How the values were obtained:
[1] = system: MMTV promoter luciferase reporter in HeLa cell line (GR transcription activation); experiment: MMTV transcription activation activity, luciferase reporter gene screening system (MMTV_GR transcription activation experiment); format: cell-based; conditions: Homo sapiens; for Emax: HeLa, maximum effect value, positive control 1000 nM dexamethasone, read-out: TA (MMTV transcription activation activity) Effect; for EC50: absolute EC50, HeLa MMTV-luciferase cells, 18 h, max concentration 1000 nM, read-out: TA (MMTV transcription activation activity) EC50
Text: The promoter of mouse mammary tumor virus (MMTV) contains specific binding sites for activating GRs (GREs). To determine the activity of the compounds, a reporter gene (luciferase) was inserted after the MMTV promoter, and this construct was expressed in a stable manner in the genome of the HeLa cell line. MMTV promoter was activated by the test compounds to induce the expression of luciferase, and its activity was detected by luminescence measurement.
• [0442] 1) All the culture media were carefully aspirated, the cell layer was rinsed gently with an appropriate amount of DPBS, and then aspirated. • [0443] 2) An appropriate amount of 0.05% Typsine EDTA was added and incubated in a CO2 incubator for 3-5 minutes to digest the cells. • [0444] 3) The cells were resuspended with an appropriate amount of cell culture medium. • [0445] 4) The amount of cells required was calculated, and the cell concentration was 4×10^3 cells/well. • [0446] 5) The cell suspension was diluted with appropriate cell culture medium. • [0447] 6) Cell suspension was dispensed into a disposable sterile loading slot. • [0448] 7) Inoculated 30 µL per well into a 384-well plate. • [0449] 8) The cell plate was placed in a 37° C. 5% CO2 incubator for 18-24 hours.
Compounds were diluted with DMSO to 1 mM, 0.25 mM, 0.0625 mM, 0.015625 mM, 0.0039 mM, 0.0009765 mM, 0.000244 mM, 0.000061 mM, 0.00001526 mM and 0.0000038125 mM, then diluted 25-fold with serum culture medium treated with activated carbon, and finally 4x concentration compound experimental plate was obtained, prepared before use.
The final DMSO experimental concentration was 0.1%.
MMTV_GR transcription activation activity experiment • [0458] 1) Inoculated cells: Fresh cells were inoculated into 384 white transparent bottom experimental plates at 4×10^3 cells/30 µL/well, and incubated at 37° C. 5% CO2 incubator for 24 hours. • [0459] 2) Compound preparation: The compound plate was prepared before the experiment, and the reference compound (dexamethasone) and the test compound of 4x concentration were prepared. Finally, the experimental plate of 4x concentration compound was obtained. • [0460] 3) Added compound: 10 µL of 4x compound was transferred with Bravo and added to cell plate. Incubated for 18 hours in a 37° C. 5% CO2 incubator. • [0461] 4) 30 µL of Bright-Glo fluorescent detection reagent was transferred to the cell plate. • [0462] 5) Centrifugal incubation for 2 minutes. • [0463] 6) The fluorescence value was measured with the Envision plate reader.
Positive control: 1000 nM dexamethasone (0.1% DMSO)
Negative control: 0.1% DMSO
Test compound: Maximum concentration of 1000 nM, 4-fold dilution, 10 wells in total, repeated.
Dexamethasone: Maximum concentration of 1000 nM, 4-fold dilution, 10 wells in total, repeated.
The graphing software GraphPad Prism5 was used to create the concentration curves of the tested compounds and calculate the IC50 values.

[2] = In vivo pharmacokinetic properties study in male SD rats; conditions: rat, plasma, iv 2 mg/kg; for half-life: read-out: T½ (converted); for Vd: read-out: Vdss
Description: Experimental purpose: The purpose of this study was to determine the pharmacokinetic parameters of compounds in male SD rats.
Experimental methods: In this project, two male SD rats were intravenously administered with a dose of 2 mg/kg and a concentration of 0.4 mg/mL. Plasma samples were collected at 0 h (before administration) and 0.0833, 0.25, 0.5, 1, 2, 4, 6, 8, 24 h after administration. Then the collected samples were analyzed by LC-MS/MS and the data were collected. The collected analytical data were used to calculate the relevant pharmacokinetic parameters using Phoenix WinNonlin 6.3 software.

[3] = target: T1, CYP3A4 (Homo sapiens, UniProt P08684); experiment: Human liver microsomal CYP repression experiment; format: in vitro ADME
T1 construct: incubation system containing human liver microsomes, probe substrates, and co-factors; tissue Corning Inc. or other suppliers; host or cells: mixed (pooled) human liver microsomes
Description: The purpose of the research project was to evaluate the repression of the test sample on human liver microsomal cytochrome P450 isoenzyme (CYP3A4) using a 5-in-1 probe substrate of CYP isoenzyme.
Mixed human liver microsomes (HLM) were purchased from Corning Inc. (Steuben, New York, USA) or other suppliers and stored at temperatures below -70° C. before use.
The diluted series concentration of the test sample was added to the incubation system containing human liver microsomes, probe substrates, and co-factors of the circulating system, and the control without the test sample but with solvent was used as the enzyme activity control (100%). The concentration of metabolites produced by the probe substrate in the sample was determined by liquid chromatography-tandem mass spectrometry (LC-MS/MS). Non-linear regression analysis of the mean percent activity of the test sample versus concentration was performed using SigmaPlot (V. 11). The IC50 values were calculated by a three- or four-parameter inverse logarithmic equation.

T1 sequence (P08684 whole entry): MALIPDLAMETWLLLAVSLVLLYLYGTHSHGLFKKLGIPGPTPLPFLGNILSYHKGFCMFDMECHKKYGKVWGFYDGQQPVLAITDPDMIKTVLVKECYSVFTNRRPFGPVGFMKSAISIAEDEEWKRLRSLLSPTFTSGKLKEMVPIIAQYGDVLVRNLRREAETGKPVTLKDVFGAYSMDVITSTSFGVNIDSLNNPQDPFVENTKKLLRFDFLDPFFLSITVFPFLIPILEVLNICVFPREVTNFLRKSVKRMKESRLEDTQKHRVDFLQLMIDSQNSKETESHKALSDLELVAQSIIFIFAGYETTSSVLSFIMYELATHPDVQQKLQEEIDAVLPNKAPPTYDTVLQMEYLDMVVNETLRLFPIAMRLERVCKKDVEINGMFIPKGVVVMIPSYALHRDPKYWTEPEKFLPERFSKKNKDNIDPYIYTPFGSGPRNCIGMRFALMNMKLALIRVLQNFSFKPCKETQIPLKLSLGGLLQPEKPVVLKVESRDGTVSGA

SMILES | Emax [1] | EC50 [1] | clearance [2] | half-life [2] | Vd [2] | repression on CYP3A4 (in words) ([3]; conclusion on Table 3) | IC50 ([3]; mixed human liver microsomes, 5-in-1 probe substrate)
CC(C)[C@H](NC(=O)C(C)(F)F)[C@H](Oc1ccc2c(cnn2-c2ccc3nncn3c2)c1)c1cc(F)cc(F)c1 [WX017] | 81.3% | 2.56 nM | – | – | – | – | –
C[C@H](NC(=O)C(C)(F)F)[C@H](Oc1ccc2c(cnn2-c2cn(C)nn2)c1)c1cc(F)cc(F)c1 [WX051] | 70.8% | 4.93 nM | 9.29 mL/min/kg | 3.54 h | 2.61 L/kg | – | –
C[C@H](NC(=O)C(C)(F)F)[C@H](Oc1ccc2c(cnn2-c2ccc3c(c2)CCCO3)c1)c1cc(F)cc(F)c1 [WX002] | 76% | 2.07 nM | – | – | – | – | –
CC(C)[C@H](NC(=O)C(C)(F)F)[C@H](Oc1ccc2c(cnn2-c2ccc3nncn3c2)c1)c1ccccc1 [WX018] | 69.4% | 12.3 nM | – | – | – | – | –
CC(C)[C@H](NC(=O)C(C)(F)F)[C@H](Oc1ccc2c(cnn2-c2ccc3nccn3c2)c1)c1ccccc1 [WX004] | 63.7% | 5.86 nM | – | – | – | – | –
C[C@H](NC(=O)C(C)(F)F)[C@H](Oc1ccc2c(cnn2-c2ccc3ncnn3c2)c1)c1cc(F)cc(F)c1 [WX034] | 89.2% | 3.2 nM | – | – | – | – | –
C[C@H](NC(=O)C(C)(F)F)[C@H](Oc1ccc2c(cnn2-c2ccc3nncn3c2)c1)c1cc(F)cc(F)c1 [WX019] | 75.2% | 0.94 nM | 9.74 mL/min/kg | 3 h | 1.28 L/kg | significantly improve the repression of CYP3A4 | 9120 nM
C[C@H](NC(=O)C(C)(F)F)[C@H](Oc1ccc2c(cnn2-c2ccc3nccn3c2)c1)c1cc(F)cc(F)c1 [WX003] | 91.4% | 0.229 nM | – | – | – | – | –
C[C@H](NC(=O)C(C)(F)F)[C@H](Oc1ccc2c(cnn2-c2cnn(C)c2)c1)c1ccccc1 [WX043] | 72.8% | 5.03 nM | – | – | – | – | –
C[C@H](NC(=O)C(C)(F)F)[C@H](Oc1ccc2c(cnn2-c2ccc3nnnn3c2)c1)c1cc(F)cc(F)c1 [WX035] | 82.5% | 5.59 nM | – | – | – | – | –
